Results on 20 molecules are retold here after US20250268903A1, “RXFP1 AGONISTS” (BRISTOL-MYERS SQUIBB COMPANY, priority 2021, published 2025).

This assay concerns the target T1, human RXFP1 (Homo sapiens, UniProt Q9HBX9).
T1 construct: expressed in transfected cells
T1 sequence (Q9HBX9 1-757): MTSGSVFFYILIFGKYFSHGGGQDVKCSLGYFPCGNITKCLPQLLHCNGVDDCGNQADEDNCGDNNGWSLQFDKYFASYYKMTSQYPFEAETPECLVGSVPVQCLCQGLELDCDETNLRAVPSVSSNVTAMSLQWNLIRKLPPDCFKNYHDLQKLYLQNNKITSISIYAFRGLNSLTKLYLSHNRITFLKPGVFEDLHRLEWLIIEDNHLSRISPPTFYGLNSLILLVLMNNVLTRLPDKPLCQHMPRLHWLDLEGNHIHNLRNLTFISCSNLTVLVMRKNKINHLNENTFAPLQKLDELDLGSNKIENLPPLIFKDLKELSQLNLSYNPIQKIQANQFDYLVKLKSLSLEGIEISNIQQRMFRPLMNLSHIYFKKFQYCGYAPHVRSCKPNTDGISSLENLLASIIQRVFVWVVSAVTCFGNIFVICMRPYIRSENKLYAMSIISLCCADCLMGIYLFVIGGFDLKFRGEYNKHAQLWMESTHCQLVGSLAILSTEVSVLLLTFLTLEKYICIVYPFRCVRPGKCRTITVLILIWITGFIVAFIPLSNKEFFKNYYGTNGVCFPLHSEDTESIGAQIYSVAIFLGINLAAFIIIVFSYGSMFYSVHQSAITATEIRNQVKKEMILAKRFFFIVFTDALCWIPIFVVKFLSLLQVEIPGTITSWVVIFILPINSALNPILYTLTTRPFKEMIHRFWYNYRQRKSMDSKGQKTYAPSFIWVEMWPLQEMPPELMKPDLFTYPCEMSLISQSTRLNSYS
As to the kind of experiment: hRXFP1 HEK293 cAMP assay (HTRF). The assay is classed as cell-based. The settings on record: HEK293 cells stably expressing human RXFP1, 30 min at room temperature. In a few lines:
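HEK293 cells stably expressing human RXFP1 were suspended in HBSS (Ca/Mg) with 20 mM HEPES, 0.05% BSA and 0.5 mM IBMX, then treated with compounds (0.010 nM–50 μM, 2% DMSO final) for 30 min at room temperature. Intracellular cAMP was measured by HTRF, and potency was derived from 4-parameter logistic fits.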
In general terms: Changes in cAMP serve as a functional read-out for many G protein-coupled receptors.

Turning to `COc1c(F)cc(C(=O)NCC2(S(C)(=O)=O)CC2)cc1C(=O)N[C@H]1[C@@H](C(=O)Nc2ccc(F)c(C(F)(F)F)c2)[C@H]2CC[C@@H]1/C2=C\C1CCCC1` [Example 367, N3-[(1R,2R,3S,4R,7Z)-7-(cyclopentyl-methylidene)-3-{[4-fluoro-3-(trifluoromethyl)phenyl]carbamoyl}bicyclo[2.2.1]heptan-2-yl]-5-fluoro-N1-[(1-methanesulfonyl-cyclopropyl)methyl]-4-methoxybenzene-1,3-dicarboxamide], the EC50 (commonly the concentration at which the effect is half-maximal) amounted to 2.3 nM.

In the case of `COc1ccc(C(C)(C)CCO)cc1C(=O)N[C@H]1[C@@H](C(=O)Nc2ccc(F)c(C(F)(F)F)c2)[C@H]2CC[C@@H]1/C2=C\C1CC1` [Example 269, (1R,2S,3R,4R,7Z)-7-(cyclopropyl-methylidene)-N-[4-fluoro-3-(trifluoromethyl)phenyl]-3-[5-(4-hydroxy-2-methylbutan-2-yl)-2-methoxybenzamido] bicyclo[2.2.1] heptane-2-carboxamide], the EC50 stood at 244 nM.

As to `COc1ccc(CCC(C)(C)O)cc1C(=O)N[C@@H]1C2CCC(/C2=C/C2CC2)[C@@H]1C(=O)Nc1ccc(F)c(C(F)(F)F)c1` (stereo partly drawn) [Example 90, (2S,3R,7Z)-7-(cyclopropylmethyli-dene)-N-[4-fluoro-3-(trifluoromethyl)phe-nyl]-3-[5-(3-hydroxy-3-methylbutyl)-2-methoxybenzamido] bicyclo[2.2.1]heptane-2-carboxamide], the response was half-maximal at 14 nM (EC50).

`COc1ccc(C2CC2C(=O)O)cc1C(=O)N[C@@H]1C2CCC(/C2=C/C(F)(F)F)[C@@H]1C(=O)Nc1ccc(F)c(C(F)(F)F)c1` (single isomer, unassigned) [Example 62] had an EC50 of 172 nM.

Molecule `COc1ccc(CN2C(=O)NC3(CCCC3)C2=O)cc1C(=O)N[C@@H]1C2CCC(/C2=C/C2CC2)[C@@H]1C(=O)Nc1ccc(F)c(C(F)(F)F)c1` (stereo partly drawn) [Example 21, (2S,3R,7Z)-7-(cyclopropylmethyli-dene)-3-[5-({2,4-dioxo-1,3-diazaspiro[4.4]nonan-3-yl}methyl)-2-methoxybenzamido]-N-[4-fluoro-3-(trifluoromethyl)phe-nyl]bicyclo[2.2.1]hept-ane-2-carboxamide] showed an EC50 of 330 nM.

`COc1cc(F)c(O[C@H]2CC[C@](C)(C(=O)O)CC2)cc1C(=O)N[C@@H]1C2CCC(/C2=C/C2CC2)[C@@H]1C(=O)Nc1ccc(F)c(C(F)(F)F)c1` (stereo partly drawn) [Example 375, (1R,4r)-4-(5-(((1R,2R,3S,4R,Z)-7-(cyclopropyl-methylene)-3-((4-fluoro-3-(trifluoromethyl)phenyl)carbamoyl)bicyclo[2.2.1]heptan-2-yl)carbamoyl)-2-fluoro-4-methoxyphenoxy)-1-methylcyclohexane-1-carboxylic acid] came in with an EC50 of 1.3 nM.

Molecule `COc1ccc(C2CC3(CC(N)C3)C2)cc1C(=O)NC1C2CCC(/C2=C/C(F)(F)F)[C@@H]1C(=O)Nc1ccc(F)c(C(F)(F)F)c1` (stereo partly drawn) [Example 154, (2S,3R,7Z)-3-(5-{6-aminospiro[3.3]hept-an-2-yl}-2-methoxybenzamido)-N-[4-fluoro-3-(trifluoromethyl)phe-nyl]-7-(2,2,2-trifluoroethylidene)bi-cyclo[2.2.1]heptane-2-carboxamide] came in with an EC50 of 1050 nM.

In turn, `COc1ccc(CC[C@H](C)O)cc1C(=O)N[C@@H]1C2CCC(/C2=C/C(F)(F)F)[C@@H]1C(=O)Nc1ccc(F)c(C(F)(F)F)c1` (stereo partly drawn) [Example 92, (2S,3R,7Z)-N-[4-fluoro-3-(trifluoromethyl)phe-nyl]-3-{5-[(3S)-3-hydroxybutyl]-2-methoxybenzamido}-7-(2,2,2-trifluoroethylidene)bi-cyclo[2.2.1]heptane-2-carboxamide] came in with an EC50 of 172 nM.

With `COc1ccc(C(=O)N2CCN(CC(F)F)CC2)cc1C(=O)N[C@H]1[C@@H](C(=O)Nc2ccc(F)c(C(F)(F)F)c2)[C@H]2CC[C@@H]1/C2=C\C1CC1` [Example 255, (1R,2S,3R,4R,7Z)-7-(cyclopropyl-methylidene)-3-{5-[4-(2,2-difluoroethyl)piperazine-1-carbonyl]-2-methoxybenzamido}-N-[4-fluoro-3-heptane-2-(trifluoromethyl)phenyl]bicyclo [2.2.1] carboxamide], the EC50 was 73.4 nM.

In turn, `COc1ccc(CCC(C)(C)O)cc1C(=O)NC1C2CCC(/C2=C/C(C)C)[C@@H]1C(=O)Nc1ccc(F)c(C(F)(F)F)c1` (some centres unmarked) [Example 158, (7Z)-N-[4-fluoro-3-(trifluoromethyl)phe-nyl]-3-[5-(3-hydroxy-3-methylbutyl)-2-methoxybenzamido]-7-(2-methylpropylidene)bi-cyclo[2.2.1]heptane-2-carboxamide] returned an EC50 of 9 nM.

`COc1ccc(S(=O)(=O)NC[C@H](C)O)cc1C(=O)N[C@@H]1C2CCC(/C2=C/C(F)(F)F)[C@@H]1C(=O)Nc1ccc(F)c(C(F)(F)F)c1` (stereo partly drawn) [Example 197, (1R,2S,3R,4R,Z)—N-(4-fluoro-3-(trifluoromethyl)phenyl)-3-(5-(N—((S)-2-hydroxypropyl)sulfamoyl)-2-methoxybenzamido)-7-(2,2,2-trifluoroethylidene) bicyclo[2.2.1]heptane-2-carboxamide]: a half-maximal effect (EC50) was put at 918 nM.

Consider `COc1ccc(/C=C/C(=O)N[C@H]2C[C@H](O)C2)cc1C(=O)NC1C2CCC(/C2=C/C(F)(F)F)[C@@H]1C(=O)Nc1ccc(F)c(C(F)(F)F)c1` (stereo partly drawn) [Example 131, (2S,3R,7Z)-N-[4-fluoro-3-(trifluoromethyl)phe-nyl]-3-{2-methoxy-5-[(1E)-2-{[(1r,3r)-3-hydroxycyclobutyl]car-bamoyl}eth-1-en-1-yl]benzamido}-7-(2,2,2-trifluoroethylidene)bi-cyclo[2.2.1]heptane-2-carboxamide], for which the EC50 amounted to 264 nM.

The molecule `COc1ccc(C#CC(C)(C)O)cc1C(=O)N[C@@H]1C2CCC(/C2=C/C(F)(F)F)[C@@H]1C(=O)Nc1ccc(F)c(C(F)(F)F)c1` (stereo partly drawn) [Example 70, (2S,3R,7Z)-N-[4-fluoro-3-(trifluoromethyl)phe-nyl]-3-[5-(3-hydroxy-3-methylbut-1-yn-1-yl)-2-methoxybenzamido]-7-(2,2,2-trifluoroethylidene)bi-cyclo[2.2.1]heptane-2-carboxamide] displayed an EC50 of 309 nM.

Consider `COc1c(F)cc(C(=O)N2CC3(C2)CC(O)(C(F)(F)F)C3)cc1C(=O)N[C@H]1[C@@H](C(=O)N[C@H](C)C2(C)CC2)[C@H]2CC[C@@H]1/C2=C\C1CC1` [Example 372, (1R,2S,3R,4R,7Z)-7-(cyclopropyl-methylidene)-3-{3-fluoro-5-[6-hydroxy-6-(trifluoromethyl)-2-azaspiro[3.3]heptane-2-carbonyl]-2-methoxybenzamido}-N-[(1R)-1-(1-methylcyclopropyl)ethyl]bicyclo[2.2.1] heptane-2-carboxamide], for which the EC50 stood at 5.9 nM.

For `COc1ccc(C2CCCC(OC(=O)Nc3ccccc3)C2)cc1C(=O)N[C@@H]1C2CCC(/C2=C/C(F)(F)F)[C@@H]1C(=O)Nc1ccc(F)c(C(F)(F)F)c1` (single isomer, unassigned) [Example 40], the response was half-maximal at 19 nM (EC50).

`COc1ccc(C2CC3CC(CO)CC32)cc1C(=O)N[C@H]1[C@@H](C(=O)Nc2ccc(F)c(C(F)(F)F)c2)[C@H]2CC[C@@H]1/C2=C\C1CC1` (single isomer, unassigned) [Example 351] gave an EC50 of 27.7 nM.

Turning to `COc1ccc(CCO)cc1C(=O)NC1C2CCC(/C2=C/C(F)(F)F)[C@@H]1C(=O)Nc1ccc(F)c(C(F)(F)F)c1` (some centres unmarked) [Example 55], the EC50 worked out at 781 nM.

`COC(=O)C1CC(c2ccc(OC)c(C(=O)N[C@H]3[C@@H](C(=O)Nc4ccc(F)c(C(F)(F)F)c4)[C@H]4CC[C@@H]3/C4=C\C(F)(F)F)c2)C1` (stereo partly drawn) [Example 331, methyl 3-(3-{(1R.2R,3S,4R,7Z)-3-{[4-fluoro-3-(trifluoromethyl)phenyl]carbamoyl}-7-(2,2,2-trifluoroethylidene)bicyclo[2.2.1]heptan-2-yl]carbamoyl}-4-methoxyphenyl) cyclobutane-1-carboxylate] yielded an EC50 of 551 nM.

Molecule “(1R,4R,7Z)-N-[4- fluoro-3- (trifluoromethyl) phenyl]-3-[5-(3- hydroxy-3- methylbutyl)-2- methoxybenzamido 1-7-[(oxolan-3- yl)methylidene] bicyclo[2.2.1] heptane- 2-carboxamide [Example 267]” returned an EC50 of 246 nM.

For `COc1ccc(S(=O)(=O)N2CC3CCC(C2)O3)cc1C(=O)N[C@H]1[C@@H](C(=O)Nc2ccc(F)c(C(F)(F)F)c2)[C@H]2CC[C@@H]1/C2=C\C(F)(F)F` [Example 214, (1R,2S,3R,4R,7Z)-N-[4-fluoro-3-(trifluoromethyl)phenyl]-3-(2-methoxy-5-{8-oxa-3-azabicyclo[3.2.1]octane-3-sulfonyl}benzamido)-7-(2,2,2-trifluoroethylidene) bicyclo[2.2.1] heptane-2-carboxamide], the EC50 came to 272 nM.
